Source: US12281122B1, “PI3K inhibitors” (Cogent Biosciences, Inc., priority 2023, dated 2025)

Experiments:
[1] = tested on: T47D (PI3Kα-H1047R) cell line; assay: HTRF phospho-AKT(S473) cell assay in T47D cells; type: cell-based, human
Summary of the method: (§1)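 Cells plated overnight (T47D in RPMI/10% FBS/0.2 units/mL insulin; SKBR3 in McCoy's 5A/10% FBS), then given 12-point 1:3 compound series (top 5 μM T47D, 10 μM SKBR3; ≤0.5% DMSO) for 2 h at 37° C. SKBR3 stimulated with 70 ng/ml PDGF-BB for final 15 min. Lysate pAKT(S473) by HTRF; IC50 calculated.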

[2] = tested on: SKBR3 (PI3Kα-Wild Type) cell line; assay: HTRF phospho-AKT(S473) cell assay in SKBR3 cells; type: cell-based, human
Summary of the method: as §1

[3] = Homo sapiens; HTRF phospho-AKT(S473), T47D (PI3Kα-H1047R) cells, 2 hours compound incubation
[4] = Homo sapiens, SK-BR-3; HTRF phospho-AKT(S473), SKBR3 (PI3Kα-Wild Type) cells, 2 hours compound incubation, PDGF-BB stimulated
[5] = Homo sapiens; T47D (PI3Kα-H1047R) cells, HTRF phospho-AKT(S473), 2 hours compound incubation
[6] = Homo sapiens, SK-BR-3; SKBR3 (PI3Kα-Wild Type) cells, HTRF phospho-AKT(S473), 2 hours compound incubation, PDGF-BB stimulated

Row | IC50 [1, 3] [nM] | IC50 [2, 4] [µM] | IC50 [1, 5] [nM] | IC50 [2, 6] [µM] | Structure (SMILES) | other results
1 | 250 to 500 | ≥ 5 | – | – | Cc1cc([C@@H](C)Nc2ccc(Cl)nc2C(=O)NS(C)(=O)=O)c2nc(N3CC[C@H](c4ccnc(C)n4)C3)n(C)c(=O)c2c1 (relative stereo) [Compound 599, 6-chloro-3-(((R)-1-(3,6-dimethyl-2-((R*)-3-(2-methylpyrimidin-4-yl)pyrrolidin-1-yl)-4-oxo-3,4-dihydroquinazolin-8-yl)ethyl)amino)-N-(methylsulfonyl) picolinamide] | –
2 | 250 to 500 | ≥ 5 | – | – | Cc1cc([C@@H](C)Nc2ccc(Cl)nc2C(=O)NS(C)(=O)=O)c2nc(N3CCC(c4n[nH]c(C)c4F)CC3)n(C)c(=O)c2c1 [Compound 547, (R)-6-chloro-3-((1-(2-(4-(4-fluoro-5-methyl-1H-pyrazol-3-yl)piperidin-1-yl)-3,6-dimethyl-4-oxo-3,4-dihydroquinazolin-8-yl)ethyl)amino)-N-(methylsulfonyl) picolinamide] | –
3 | – | – | < 250 | ≥ 5 | Cc1cc([C@@H](C)Nc2ccc(Cl)nc2C(=O)NS(C)(=O)=O)c2nc(N3CCO[C@@H](c4cnn(C)c4)C3)n(C)c(=O)c2c1 (relative stereo) [Compound 314, 6-chloro-3-(((R)-1-(3,6-dimethyl-2-((R*)-2-(1-methyl-1H-pyrazol-4-yl)morpholino)-4-oxo-3,4-dihydroquinazolin-8-yl)ethyl)amino)-N-(methylsulfonyl) picolinamide] | –
4 | < 250 | 1 to 5 | – | – | Cc1cc([C@@H](C)Nc2ccc(Cl)nc2C(=O)NS(C)(=O)=O)c2nc(N3CCC(c4c(F)cnn4C4CC4)CC3)n(C)c(=O)c2c1 [Compound 455, (R)-6-chloro-3-((1-(2-(4-(1-cyclopropyl-4-fluoro-1H-pyrazol-5-yl)piperidin-1-yl)-3,6-dimethyl-4-oxo-3,4-dihydroquinazolin-8-yl)ethyl)amino)-N-(methylsulfonyl) picolinamide] | –
5 | – | – | < 250 | 1 to 5 | C[C@@H](Nc1ccc(Cl)nc1C(=O)NS(C)(=O)=O)c1cc(F)cc2c(=O)n(C)c(N3CC[C@H](Oc4cnn(C)c4)C3)nc12 [Compound 388, 6-chloro-3-(((R)-1-(6-fluoro-3-methyl-2-((S)-3-((1-methyl-1H-pyrazol-4-yl)oxy)pyrrolidin-1-yl)-4-oxo-3,4-dihydroquinazolin-8-yl)ethyl)amino)-N-(methylsulfonyl) picolinamide] | –
6 | – | – | < 250 | ≥ 5 | Cc1cc([C@@H](C)Nc2ccc(Cl)nc2C(=O)NS(C)(=O)=O)c2nc(N3CC[C@@H](c4ccn(C)n4)CC3(C)C)n(C)c(=O)c2c1 (relative stereo) [Compound 324, 6-chloro-3-(((R)-1-(2-((R*)-2,2-dimethyl-4-(1-methyl-1H-pyrazol-3-yl)piperidin-1-yl)-3,6-dimethyl-4-oxo-3,4-dihydroquinazolin-8-yl)ethyl)amino)-N-(methylsulfonyl) picolinamide] | –
7 | – | – | < 250 | 1 to 5 | Cc1cc([C@@H](C)Nc2ccc(Cl)nc2C(=O)NS(C)(=O)=O)c2nc(N3CCC(c4ccnn4C)CC3)n(C)c(=O)c2c1 [Compound 389, (R)-6-chloro-3-((1-(3,6-dimethyl-2-(4-(1-methyl-1H-pyrazol-5-yl)piperidin-1-yl)-4-oxo-3,4-dihydroquinazolin-8-yl)ethyl)amino)-N-(methylsulfonyl) picolinamide] | –

Further lines, the compound ahead of its results:

Row | Structure (SMILES) | IC50 [1, 3] [nM] | IC50 [2, 4] [µM] | IC50 [1, 5] [nM] | IC50 [2, 6] [µM] | other results
8 | Cc1cc([C@@H](C)Nc2ccc(Cl)nc2C(=O)NS(C)(=O)=O)c2nc(N3C[C@@H]4[C@H](C3)[C@H]4c3cccnc3C)n(C)c(=O)c2c1 [Compound 385, 6-chloro-3-(((R)-1-(3,6-dimethyl-2-((1R,5S,6S)-6-(2-methylpyridin-3-yl)-3-azabicyclo[3.1.0]hexan-3-yl)-4-oxo-3,4-dihydroquinazolin-8-yl)ethyl)amino)-N-(methylsulfonyl) picolinamide] | – | – | < 250 | 1 to 5 | –
9 | Cc1cc([C@@H](C)Nc2ccc(Cl)nc2C(=O)NS(C)(=O)=O)c2nc(N3C[C@@H]4[C@H](C3)[C@H]4c3ccc(C#N)nc3)n(C)c(=O)c2c1 [Compound 402, 6-chloro-3-(((R)-1-(2-((1R,5S,6S)-6-(6-cyanopyridin-3-yl)-3-azabicyclo[3.1.0]hexan-3-yl)-3,6-dimethyl-4-oxo-3,4-dihydroquinazolin-8-yl)ethyl)amino)-N-(methylsulfonyl) picolinamide] | – | – | < 250 | 1 to 5 | –
10 | Cc1cc([C@@H](C)Nc2ccc(Cl)nc2C(=O)NS(C)(=O)=O)c2nc(N3CCCC(c4ncc(Cl)cn4)C3)n(C)c(=O)c2c1 (stereo in doubt) [Compound 587, 6-chloro-3-(((R)-1-(2-((R*)-3-(5-chloropyrimidin-2-yl)piperidin-1-yl)-3,6-dimethyl-4-oxo-3,4-dihydroquinazolin-8-yl)ethyl)amino)-N-(methylsulfonyl) picolinamide] | – | – | – | – | IC50 ([1]; HTRF phospho-AKT(S473), T47D (PI3Kα-H1047R) cells, 2 hours compound incubation): 250 to 500 nM; IC50 ([2]; HTRF phospho-AKT(S473), SKBR3 (PI3Kα-Wild Type) cells, 2 hours compound incubation, PDGF-BB stimulated): ≥ 5 µM
11 | Cc1cc([C@@H](C)Nc2ccc(Cl)nc2C(=O)NS(C)(=O)=O)c2nc(N3C[C@@H]4CC(c5cnc(C)nc5)C[C@H]4C3)n(C)c(=O)c2c1 (mixture of isomers) [Compound 762, 6-chloro-3-(((R)-1-(3,6-dimethyl-2-((3aRS,6aRS)-5-(2-methylpyrimidin-5-yl)hexahydrocyclopenta [c]pyrrol-2(1H)-yl)-4-oxo-3,4-dihydroquinazolin-8-yl)ethyl)amino)-N-(methylsulfonyl) picolinamide] | 250 to 500 | ≥ 5 | – | – | –
12 | COc1c([C@H]2[C@@H]3CN(c4nc5c([C@@H](C)Nc6ccc(Cl)nc6C(=O)NS(C)(=O)=O)cc(C)cc5c(=O)n4C)C[C@@H]32)cnn1C [Compound 461, 6-chloro-3-(((R)-1-(2-((1R,5S,6S)-6-(5-methoxy-1-methyl-1H-pyrazol-4-yl)-3-azabicyclo[3.1.0]hexan-3-yl)-3,6-dimethyl-4-oxo-3,4-dihydroquinazolin-8-yl)ethyl)amino)-N-(methylsulfonyl) picolinamide] | < 250 | 1 to 5 | – | – | –
13 | Cc1cc([C@@H](C)Nc2ccc(Cl)nc2C(=O)NS(C)(=O)=O)c2nc(N3C[C@@H]4[C@H](C3)[C@H]4c3cnn(C)n3)n(C)c(=O)c2c1 [Compound 409, 6-chloro-3-(((R)-1-(3,6-dimethyl-2-((1R,5S,6R)-6-(2-methyl-2H-1,2,3-triazol-4-yl)-3-azabicyclo[3.1.0]hexan-3-yl)-4-oxo-3,4-dihydroquinazolin-8-yl)ethyl)amino)-N-(methylsulfonyl) picolinamide] | – | – | < 250 | 1 to 5 | –
14 | Cc1cc([C@@H](C)Nc2ccc(Cl)nc2C(=O)NS(C)(=O)=O)c2nc(N3C[C@@H]4[C@H](C3)[C@H]4c3n[nH]c(C)c3F)n(C)c(=O)c2c1 [Compound 594, 6-chloro-3-(((R)-1-(2-((1R,5S,6R)-6-(4-fluoro-5-methyl-1H-pyrazol-3-yl)-3-azabicyclo[3.1.0]hexan-3-yl)-3,6-dimethyl-4-oxo-3,4-dihydroquinazolin-8-yl)ethyl)amino)-N-(methylsulfonyl) picolinamide] | < 250 | 1 to 5 | – | – | –
15 | Cc1cc([C@@H](C)Nc2ccc(Cl)nc2C(=O)NS(C)(=O)=O)c2nc(-c3ccc(-c4cnn(C)c4)nc3)n(C)c(=O)c2c1 [Compound 241, (R)-6-chloro-3-((1-(3,6-dimethyl-2-(6-(1-methyl-1H-pyrazol-4-yl)pyridin-3-yl)-4-oxo-3,4-dihydroquinazolin-8-yl)ethyl)amino)-N-(methylsulfonyl) picolinamide] | – | – | < 250 | 1 to 5 | –
16 | Cc1cc([C@@H](C)Nc2ccc(Cl)nc2C(=O)NS(C)(=O)=O)c2nc(N3C[C@@H]4[C@H](C3)[C@H]4c3ccnc(C)c3F)n(C)c(=O)c2c1 [Compound 548, 6-chloro-3-(((R)-1-(2-((1R,5S,6S)-6-(3-fluoro-2-methylpyridin-4-yl)-3-azabicyclo[3.1.0]hexan-3-yl)-3,6-dimethyl-4-oxo-3,4-dihydroquinazolin-8-yl)ethyl)amino)-N-(methylsulfonyl) picolinamide] | 250 to 500 | 1 to 5 | – | – | –
17 | Cc1cc([C@@H](C)Nc2ccc(Cl)nc2C(=O)NS(C)(=O)=O)c2nc(-c3ccc(Nc4ccccc4C)nc3)n(C)c(=O)c2c1 [Compound 283, (R)-6-chloro-3-((1-(3,6-dimethyl-4-oxo-2-(6-(o-tolylamino)pyridin-3-yl)-3,4-dihydroquinazolin-8-yl)ethyl)amino)-N-(methylsulfonyl) picolinamide] | – | – | < 250 | ≥ 5 | –
18 | Cc1cc([C@@H](C)Nc2ccc(Cl)nc2C(=O)NS(C)(=O)=O)c2nc(N3C[C@@H]4[C@H](C3)[C@H]4c3nc(C)nn3C(F)F)n(C)c(=O)c2c1 [Compound 643, 6-chloro-3-(((R)-1-(2-((1R,5S,6R)-6-(1-(difluoromethyl)-3-methyl-1H-1,2,4-triazol-5-yl)-3-azabicyclo[3.1.0]hexan-3-yl)-3,6-dimethyl-4-oxo-3,4-dihydroquinazolin-8-yl)ethyl)amino)-N-(methylsulfonyl) picolinamide] | 250 to 500 | ≥ 5 | – | – | –
19 | CC(=O)N1CCN(c2ccc(-c3nc4c([C@@H](C)Nc5ccc(Cl)nc5C(=O)NS(C)(=O)=O)cc(C)cc4c(=O)n3C)cc2F)CC1(C)C [Compound 804, (R)-3-((1-(2-(4-(4-acetyl-3,3-dimethylpiperazin-1-yl)-3-fluorophenyl)-3,6-dimethyl-4-oxo-3,4-dihydroquinazolin-8-yl)ethyl)amino)-6-chloro-N-(methylsulfonyl) picolinamide] | < 250 | ≥ 5 | – | – | –
